Assay results from US10111881B2 (priority 2016, dated 2018).
pEC50, pIC50: −log10 of the molar value. Read-outs that look alike come from different tables or passages of the source.

Assays:
MARV = assay: microbe, parasite or virus in culture; type: cell-based, Marburgvirus (Musoke strain); settings: for IC50: read-out: MARV HeLa IC50 (μM)
EBOV [1] = assay: organism not typed; type: cell-based, Zaire Ebolavirus (Mayinga strain); settings: for pEC50: read-out: EC50 for Ebolavirus inhibition; for IC50: read-out: EBOV HeLa IC50 (μM)
EBOV [2] = assay: microbe, parasite or virus in culture; type: cell-based, Zaire Ebolavirus (Mayinga strain); settings: for pIC50: read-out: Activity in macrophages IC50; for IC50: Zaire ebolavirus, Macrophage, read-out: Activity in macrophages IC50 (μM)
EBOV [3] = type: cell-based, Zaire Ebolavirus (Mayinga strain)
HeLa cells [4] = type: cell-based, human
HeLa cells [5] = type: cell-based, human; settings: for Dextran Uptake: 50 μM
HeLa cells [6] = type: cell-based, human; settings: for Transferrin uptake: 50 μM
[7] = test system: Baby hamster kidney fibroblasts (BHK) cells; assay: Acridine orange assay for acidification blockers; type: cell-based
Cathepsin = Cathepsin cleavage of GP
NPC1 C-loop = target: T1, NPC1 C-loop (Homo sapiens, UniProt O15118); assay: NPC1 C-loop binding
T1 construct: C-loop
T1 sequence (O15118 372-620 limits assumed): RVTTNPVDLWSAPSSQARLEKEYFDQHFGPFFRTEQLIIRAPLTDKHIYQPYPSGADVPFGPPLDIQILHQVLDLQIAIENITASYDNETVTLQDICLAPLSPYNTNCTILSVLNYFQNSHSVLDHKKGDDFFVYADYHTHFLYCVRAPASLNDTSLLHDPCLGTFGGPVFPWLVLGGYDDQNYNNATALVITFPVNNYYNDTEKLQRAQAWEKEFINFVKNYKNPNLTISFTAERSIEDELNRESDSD

MDM2/A = MDM2/A (Homo sapiens, UniProt Q00987); settings: MLSMR screening network data; cited from earlier work
MDM4/1 = target: T2, MDM4/1 (Homo sapiens, UniProt O15151); settings: MLSMR screening network data; cited from earlier work
T2 sequence (O15151 1-490): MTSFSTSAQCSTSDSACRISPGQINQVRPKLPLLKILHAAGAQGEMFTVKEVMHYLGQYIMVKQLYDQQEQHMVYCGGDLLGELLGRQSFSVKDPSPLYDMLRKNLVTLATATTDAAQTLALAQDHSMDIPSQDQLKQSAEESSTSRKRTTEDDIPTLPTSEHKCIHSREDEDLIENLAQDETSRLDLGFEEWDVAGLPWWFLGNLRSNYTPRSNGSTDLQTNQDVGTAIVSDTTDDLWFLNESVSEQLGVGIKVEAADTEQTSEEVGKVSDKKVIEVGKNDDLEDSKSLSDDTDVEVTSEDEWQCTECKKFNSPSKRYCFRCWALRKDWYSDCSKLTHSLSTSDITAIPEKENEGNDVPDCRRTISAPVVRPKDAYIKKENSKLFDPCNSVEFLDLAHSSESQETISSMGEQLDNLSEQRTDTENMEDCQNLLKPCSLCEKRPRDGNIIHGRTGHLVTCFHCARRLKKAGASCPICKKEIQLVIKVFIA

HeLa cells [8] = settings: human
IL-1-Beta = settings: PubChem / MLSMR data; cited from earlier work
Janus kinase 2 = settings: PubChem data; cited from earlier work
Synuclein = settings: PubChem data; cited from earlier work
Shiga toxins A and B = settings: cited from earlier work
EEA1-positive vesicles = type: cell-based, human
LAMP1-positive vesicles = type: cell-based, human
TDP1 = TDP1 (Homo sapiens, UniProt Q9NUW8); settings: PubChem data; cited from earlier work
[9] = target: T3, acetylcholine receptor M1 (Homo sapiens, UniProt P11229); settings: PubChem data; cited from earlier work
T3 sequence (P11229 1-460): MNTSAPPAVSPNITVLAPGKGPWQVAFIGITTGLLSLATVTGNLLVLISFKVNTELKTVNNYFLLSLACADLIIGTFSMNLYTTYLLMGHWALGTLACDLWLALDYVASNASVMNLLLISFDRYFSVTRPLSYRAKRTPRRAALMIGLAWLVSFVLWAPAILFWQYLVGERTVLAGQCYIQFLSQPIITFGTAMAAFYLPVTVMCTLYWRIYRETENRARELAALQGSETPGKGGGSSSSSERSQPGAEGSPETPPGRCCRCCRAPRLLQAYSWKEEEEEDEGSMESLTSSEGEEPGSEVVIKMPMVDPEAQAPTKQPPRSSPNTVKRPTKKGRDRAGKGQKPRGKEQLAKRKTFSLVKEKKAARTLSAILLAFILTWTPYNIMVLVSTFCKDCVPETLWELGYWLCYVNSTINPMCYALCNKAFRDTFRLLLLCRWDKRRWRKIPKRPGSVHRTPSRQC

[10] = Orthomarburgvirus, HeLa, read-out: IC-50 (MARV)
[11] = Zaire ebolavirus, HeLa, read-out: IC-50 (EBOV)

Chain of MDM2/A (Q00987 whole entry, species assumed): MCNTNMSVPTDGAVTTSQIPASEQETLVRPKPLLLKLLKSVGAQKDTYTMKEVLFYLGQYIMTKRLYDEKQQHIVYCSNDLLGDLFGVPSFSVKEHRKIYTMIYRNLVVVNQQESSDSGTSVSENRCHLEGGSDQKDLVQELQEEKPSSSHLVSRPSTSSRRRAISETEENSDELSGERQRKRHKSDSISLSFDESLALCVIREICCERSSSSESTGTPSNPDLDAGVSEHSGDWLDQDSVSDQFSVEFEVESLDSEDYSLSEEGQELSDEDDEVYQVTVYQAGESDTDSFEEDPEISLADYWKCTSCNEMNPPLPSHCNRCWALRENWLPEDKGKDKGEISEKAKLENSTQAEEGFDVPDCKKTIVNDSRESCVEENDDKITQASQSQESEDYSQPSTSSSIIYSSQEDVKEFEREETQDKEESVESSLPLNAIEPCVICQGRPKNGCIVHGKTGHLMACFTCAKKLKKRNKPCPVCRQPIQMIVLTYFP
Chain of TDP1 (Q9NUW8 whole entry, species assumed): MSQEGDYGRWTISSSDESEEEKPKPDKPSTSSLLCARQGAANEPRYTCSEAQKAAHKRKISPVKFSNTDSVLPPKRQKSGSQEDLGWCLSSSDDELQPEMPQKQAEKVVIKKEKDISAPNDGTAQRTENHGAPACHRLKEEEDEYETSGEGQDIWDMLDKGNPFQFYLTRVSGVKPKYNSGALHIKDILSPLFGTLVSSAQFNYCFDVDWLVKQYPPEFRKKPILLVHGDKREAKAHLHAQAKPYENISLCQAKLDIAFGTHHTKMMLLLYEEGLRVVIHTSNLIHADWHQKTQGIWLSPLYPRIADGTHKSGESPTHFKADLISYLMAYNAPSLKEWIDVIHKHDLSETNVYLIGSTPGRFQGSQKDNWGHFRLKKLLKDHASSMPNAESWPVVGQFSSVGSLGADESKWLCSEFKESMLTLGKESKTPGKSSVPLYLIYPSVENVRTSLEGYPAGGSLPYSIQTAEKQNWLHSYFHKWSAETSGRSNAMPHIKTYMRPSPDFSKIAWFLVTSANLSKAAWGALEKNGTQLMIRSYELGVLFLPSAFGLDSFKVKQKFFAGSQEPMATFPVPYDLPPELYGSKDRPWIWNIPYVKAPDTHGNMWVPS

SMILES | Curve class (MARV) (MARV) | MARV (Curve class) (MARV) | pIC50 (MARV; read-out: IC-50 (MARV)) | pIC50 (MARV; read-out: MARV HeLa IC50) | Curve Class (EBOV) (EBOV [1]) | EBOV (curve class) (EBOV [1]) | pIC50 (EBOV [1]; read-out: EBOV HeLa IC50) | pIC50 (EBOV [1]; read-out: IC-50 (EBOV)) | pIC50 (EBOV [2]) | Surface interaction (EBOV [3]) | Uninfected cell number (EBOV [3]) | Dextran Uptake (HeLa cells [5]) | Transferrin uptake (HeLa cells [6]) | Acidification Block [7] | effect on endosomal acidification [7] | Cathepsin clevage (Cathepsin) | NPC1 C-loop binding (NPC1 C-loop) | inhibition of MDM2/A (MDM2/A) | inhibition of MDM4/1 (MDM4/1) | effect on transferrin uptake (HeLa cells [6]) | other results
N#Cc1c(NCCN)nc(-c2ccccc2)c2c1CCCC2 [MLS000534476] | 1.3 | 1.3 | 5.21 | 5.21 | 1.6 | 1.6 | 4.61 | 4.61 | 5.44 | − | + | 0 | − | + | affected endosomal acidification | 0 | 0 | identified as inhibitors | identified as inhibitors |  | decrease in total viral particles bound to cell surface (EBOV [3]): 55%; virus particle uptake (EBOV [3]): reduced particle uptake; decrease in transferrin binding to cells (HeLa cells [4]): > 55%; GP cleavage by cellular proteases (Cathepsin): reduced GP cleavage
O=[N+]([O-])c1cc(S(=O)(=O)NCCN2CCOCC2)ccc1Sc1nnnn1-c1ccccc1 [MLS000394177, N-(2-morpholin-4-ylethyl)-3-nitro-4-(1-phenyltetrazol-5-yl)sulfanylbenzenesulfonamide] | 1.3 | 1.3 |  |  | 1.6 | 1.6 |  |  |  | + | 0 | − | 0 | + | affected endosomal acidification | 0 | 0 | identified as inhibitors | identified as inhibitors | no effect on transferrin uptake | pIC50 (MARV; [10]): 4.89; IC50 (MARV; Orthomarburgvirus, HeLa): 12.9 µM; potency for Ebolavirus inhibition, times better than EIPA (EBOV [1]): 25 times; pEC50 (EBOV [1]; HeLa): 5.72; IC50 (EBOV [1]; Zaire ebolavirus, HeLa): 1.9 µM; pIC50 (EBOV [1]; [11]): 5.72; IC50 (EBOV [2]): 8.6 µM; enhancement of virus interaction with cells (EBOV [3]): 44%; reduction of number of viral particles inside the cell body (EBOV [3]): 62%; reduction of uptake of fluorescently labeled dextran (HeLa cells [5]): approximately 91%; toxic concentration (not toxic up to / toxic at) (HeLa cells [8]): > 100 µM; secretion of IL-1-Beta (IL-1-Beta): inhibit secretion of IL-1-Beta; inhibition of Janus kinase 2 (JNK2) (Janus kinase 2): active; Synuclein activity (Synuclein): active; Shiga toxins A and B (Shiga toxins A and B): active
CC(C)(C)c1nc2ccccc2c2nnc(SCC(=O)Nc3nccs3)n12 [MLS000555232] | 1.3 | 1.3 | 5.20 | 5.20 | 1.6 | 1.6 | 5.77 | 5.76 | 5.03 | + | 0 | 0 | 0 | − |  | 0 | 0 | identified as inhibitors | identified as inhibitors | do not inhibit transferrin uptake | enhancement of virus interaction with cells (EBOV [3]): 89%; increase in virus particle binding to the cell surface (EBOV [3]): ~2 fold; Effect on EEA1 (EEA1-positive vesicles): −; reduction of colocalization of EBOV VLPs with EEA1-positive vesicles (EEA1-positive vesicles): 77%; Effect on LAMP1 (LAMP1-positive vesicles): −; reduction of number of VLPs present in LAMP1-positive vesicles (LAMP1-positive vesicles): 89%
Cc1cc(-c2nn(-c3ccccc3F)cc2CN2CCN(c3ccncc3)CC2)c(C)s1 [MLS000733230, 1-[[3-(2,5-dimethylthiophen-3-yl)-1-(2-fluorophenyl)pyrazol-4-yl]methyl]-4-pyridin-4-ylpiperazine] | 1.3 | 1.3 |  |  | 1.3 | 1.3 |  |  |  | 0 | 0 | − | 0 | + | affected endosomal acidification | 0 | 0 |  |  | no effect on transferrin uptake | pIC50 (MARV; [10]): 4.93; IC50 (MARV; Orthomarburgvirus, HeLa): 11.7 µM; potency for Ebolavirus inhibition, times better than EIPA (EBOV [1]): 7 times; pEC50 (EBOV [1]; HeLa): 5.17; IC50 (EBOV [1]; Zaire ebolavirus, HeLa): 6.7 µM; pIC50 (EBOV [1]; [11]): 5.17; IC50 (EBOV [2]): 4.4 µM; reduction of number of viral particles inside the cell body (EBOV [3]): 91%; reduction of uptake of fluorescently labeled dextran (HeLa cells [5]): approximately 91%; toxic concentration (not toxic up to / toxic at) (HeLa cells [8]): > 100 µM; secretion of IL-1-Beta (IL-1-Beta): inhibit secretion of IL-1-Beta
CC(C)N1CCN(C(=O)c2ccc(OC3CCN(CCc4ccccc4)CC3)cc2)CC1 [MLS001101371] | 1.3 | 1.3 | 4.89 | 4.89 | 1.3 | 1.3 | 4.89 | 4.89 | 4.61 | 0 | 0 | 0 | 0 | + |  | 0 | 0 |  |  | do not inhibit transferrin uptake | Effect on EEA1 (EEA1-positive vesicles): 0; VLP colocalization with EEA1 (EEA1-positive vesicles): colocalized with EEA1 positive vesicles normally; Effect on LAMP1 (LAMP1-positive vesicles): −; reduction of number of VLPs present in LAMP1-positive vesicles (LAMP1-positive vesicles): 41%; antagonist of DNA repair gene TDP1 (TDP1): identified; antagonist of acetylcholine receptor M1 [9]: identified
